Reference: US20210353631A1, “1,4-Benzoxazines for the Treatment of Cancers and Other Neurodegenerative Diseases” (Neugeneron LLC, priority 2020, published 2021)
Where two headings read alike, the source gives them in different places.

Tests used:
[1] = molecular target: p38 MAPK; conditions: kinome profiling studies; cited from earlier work
[2] = tested on: panel of 20 kinases; conditions: 500 nM; previous analyses; cited from earlier work
[3] = molecular target: cyclin-dependent kinases (CDKs); conditions: kinome profiling studies; cited from earlier work
[4] = molecular target: T1, GSK3β (Homo sapiens, UniProt P49841); conditions: kinome profiling studies; cited from earlier work
T1 sequence (P49841 whole entry): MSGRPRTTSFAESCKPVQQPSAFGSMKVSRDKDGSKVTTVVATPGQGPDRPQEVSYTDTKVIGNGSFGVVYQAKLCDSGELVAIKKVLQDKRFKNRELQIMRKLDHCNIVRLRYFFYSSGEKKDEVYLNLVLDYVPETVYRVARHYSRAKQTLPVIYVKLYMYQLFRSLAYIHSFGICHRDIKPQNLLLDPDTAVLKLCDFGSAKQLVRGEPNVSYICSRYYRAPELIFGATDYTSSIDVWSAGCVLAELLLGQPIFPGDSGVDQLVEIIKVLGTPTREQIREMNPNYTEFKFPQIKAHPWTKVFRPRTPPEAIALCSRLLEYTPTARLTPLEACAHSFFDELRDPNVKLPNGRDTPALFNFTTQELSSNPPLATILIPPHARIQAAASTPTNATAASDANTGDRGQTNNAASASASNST

[5] = tested on: mouse model of HD; conditions: cited from earlier work
[6] = tested on: fly model of AD; conditions: widely-used fly model of AD; cited from earlier work
[7] = tested on: cell culture models of neurodegeneration; conditions: cited from earlier work
[8] = molecular target: T2, CLK2 (Homo sapiens, UniProt P49760); assay: KINOMEscan kinome profiling (DiscoveRx/Eurofin platform); type: binding; conditions: read-out: % control
T2 construct: purchased DiscoveRx/Eurofin
T2 sequence (P49760 whole entry): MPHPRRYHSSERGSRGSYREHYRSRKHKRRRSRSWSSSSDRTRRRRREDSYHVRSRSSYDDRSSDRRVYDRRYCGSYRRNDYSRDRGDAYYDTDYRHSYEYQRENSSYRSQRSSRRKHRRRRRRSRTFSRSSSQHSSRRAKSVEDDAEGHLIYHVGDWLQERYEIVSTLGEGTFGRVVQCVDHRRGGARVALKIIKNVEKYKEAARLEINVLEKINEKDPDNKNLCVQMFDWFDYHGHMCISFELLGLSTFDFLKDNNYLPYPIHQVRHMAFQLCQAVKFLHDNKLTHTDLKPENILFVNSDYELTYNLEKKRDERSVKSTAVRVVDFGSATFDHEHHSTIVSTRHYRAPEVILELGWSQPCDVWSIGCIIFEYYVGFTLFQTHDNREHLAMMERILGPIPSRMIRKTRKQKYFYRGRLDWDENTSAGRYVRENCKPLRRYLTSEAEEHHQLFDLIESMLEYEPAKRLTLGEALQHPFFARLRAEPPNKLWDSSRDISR

[9] = molecular target: T3, DAPK1 (Homo sapiens, UniProt P53355); assay: as above; type: binding; conditions: read-out: % control
T3 construct: purchased DiscoveRx/Eurofin

[10] = molecular target: T4, CLK3 (Homo sapiens, UniProt P49761); assay: as above; type: binding; conditions: read-out: % control
T4 construct: purchased DiscoveRx/Eurofin

[11] = molecular target: T5, DMPK2 (CDC42BPG) (Homo sapiens, UniProt Q6DT37); assay: as above; type: binding; conditions: KINOMEscan DMPK2 (Entrez CDC42BPG), read-out: % control
T5 construct: purchased DiscoveRx/Eurofin

[12] = molecular target: T6, CSF1R -autoinhibited (Homo sapiens, UniProt P07333); assay: as above; type: binding; conditions: read-out: % control
T6 construct: purchased DiscoveRx/Eurofin

[13] = molecular target: T7, CSNK1E (Homo sapiens, UniProt P49674); assay: as above; type: binding; conditions: read-out: % control
T7 construct: purchased DiscoveRx/Eurofin
T7 sequence (P49674 whole entry): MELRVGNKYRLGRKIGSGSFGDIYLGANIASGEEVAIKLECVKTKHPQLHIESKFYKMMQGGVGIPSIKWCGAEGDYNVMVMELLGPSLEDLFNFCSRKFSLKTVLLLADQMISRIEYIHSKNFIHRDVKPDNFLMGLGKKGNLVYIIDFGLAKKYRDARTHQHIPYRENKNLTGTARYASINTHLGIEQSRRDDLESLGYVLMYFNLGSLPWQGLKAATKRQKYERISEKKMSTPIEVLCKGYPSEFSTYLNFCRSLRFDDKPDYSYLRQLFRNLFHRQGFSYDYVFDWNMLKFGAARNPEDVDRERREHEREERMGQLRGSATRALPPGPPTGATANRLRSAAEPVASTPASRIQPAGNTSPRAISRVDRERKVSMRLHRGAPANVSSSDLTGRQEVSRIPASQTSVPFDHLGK

[14] = molecular target: T8, EGFR(G719S) (Homo sapiens, UniProt P00533, G719S); assay: as above; type: binding; conditions: read-out: % control
T8 construct: purchased DiscoveRx/Eurofin

[15] = tested on: EGFR(L747-T751del,Sins); assay: as above; type: binding; conditions: 1 uM
[16] = molecular target: T9, CLK4 (Homo sapiens, UniProt Q9HAZ1); assay: as above; type: binding; conditions: read-out: % control
T9 construct: purchased DiscoveRx/Eurofin

[17] = molecular target: T10, DRAK1/STK17a (Homo sapiens, UniProt Q9UEE5); assay: as above; type: binding; conditions: KINOMEscan DRAK1 (Entrez STK17A), read-out: % control
T10 construct: purchased DiscoveRx/Eurofin

[18] = tested on: cerebellar granule neurons (CGNs); assay: Neuroprotection in cerebellar granule neurons switched from HK to LK medium; type: cell-based; conditions: 1, 5 and 25 uM, viability 24 h later, single experiment in duplicate
Experimental: (§1) FIGS. 1A to 1C, show: (FIG. 1A) Chemical structure of NGN-006. (FIG. 1B) Neuroprotection in cerebellar granule neurons (CGNs) induced to die by switching from high potassium (HK) to low potassium (LK) medium. HSB-13 and NGN-006 were added to LK-treated CGNs at 1, 5 and 25 uM concentrations. Viability was measured 24 h later and compared with control survival in HK). Results are means values from a single experiment performed in duplicate. […] (FIG. 1C) Neuroprotection in cortical neurons (CGNs) induced to die by treatment with homocysteic acid (HCA) which induces oxidative stress. Neurons were treated either with HCA alone or HCA with 25 uM HSB-13 or 5 uM and 25 uM NGN-006 for 18 h. Viability was measured 24 h later and compared with survival of control (untreated cells, Unt). Results are mean values from a single experiment performed in duplicate.
(§2) Based on the structure of HSB-13 addition compounds have been synthesized. Among these derivatives was NGN-006 (FIG. 1A). […] Viability was measured 24 h later and compared with control survival in HK). […] Viability was measured 24 h later and compared with survival of control (untreated cells, Unt). […]

[19] = molecular target: T11, EGFR(L747-S752del, P753S) (Homo sapiens, UniProt P00533, DEL747-752/P753S); assay: KINOMEscan kinome profiling (DiscoveRx/Eurofin platform); type: binding; conditions: read-out: % control
T11 construct: purchased DiscoveRx/Eurofin

[20] = molecular target: T12, DYRK1A (Homo sapiens, UniProt Q13627); assay: as above; type: binding; conditions: read-out: % control
T12 construct: purchased DiscoveRx/Eurofin

[21] = molecular target: T13, DYRK2 (Homo sapiens, UniProt Q92630); assay: as above; type: binding; conditions: read-out: % control
T13 construct: purchased DiscoveRx/Eurofin
T13 sequence (Q92630 whole entry): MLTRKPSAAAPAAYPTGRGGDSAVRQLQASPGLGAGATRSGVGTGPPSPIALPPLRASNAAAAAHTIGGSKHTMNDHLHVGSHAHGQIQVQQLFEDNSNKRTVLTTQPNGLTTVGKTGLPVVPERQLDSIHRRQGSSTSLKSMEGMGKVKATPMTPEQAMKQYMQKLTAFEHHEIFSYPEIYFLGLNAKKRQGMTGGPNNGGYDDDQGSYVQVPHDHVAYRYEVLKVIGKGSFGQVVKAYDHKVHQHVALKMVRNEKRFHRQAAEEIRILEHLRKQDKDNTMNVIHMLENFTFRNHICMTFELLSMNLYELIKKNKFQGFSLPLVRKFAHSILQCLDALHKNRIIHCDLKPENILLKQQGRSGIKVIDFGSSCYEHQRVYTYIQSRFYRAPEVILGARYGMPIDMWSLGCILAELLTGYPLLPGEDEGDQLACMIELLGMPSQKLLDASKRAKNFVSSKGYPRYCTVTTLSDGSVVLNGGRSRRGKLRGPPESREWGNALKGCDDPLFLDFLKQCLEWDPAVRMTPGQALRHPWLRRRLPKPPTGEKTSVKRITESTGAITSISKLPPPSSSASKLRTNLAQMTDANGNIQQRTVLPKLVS

[22] = molecular target: T14, CSK (Homo sapiens, UniProt P41240); assay: as above; type: binding; conditions: read-out: % control
T14 construct: purchased DiscoveRx/Eurofin

[23] = molecular target: T15, DCAMKL1 (DCLK1) (Homo sapiens, UniProt O15075); assay: as above; type: binding; conditions: KINOMEscan DCAMKL1 (Entrez DCLK1), read-out: % control
T15 construct: purchased DiscoveRx/Eurofin

[24] = molecular target: T16, DCAMKL2 (DCLK2) (Homo sapiens, UniProt Q8N568); assay: as above; type: binding; conditions: KINOMEscan DCAMKL2 (Entrez DCLK2), read-out: % control
T16 construct: purchased DiscoveRx/Eurofin
T16 sequence (Q8N568 whole entry): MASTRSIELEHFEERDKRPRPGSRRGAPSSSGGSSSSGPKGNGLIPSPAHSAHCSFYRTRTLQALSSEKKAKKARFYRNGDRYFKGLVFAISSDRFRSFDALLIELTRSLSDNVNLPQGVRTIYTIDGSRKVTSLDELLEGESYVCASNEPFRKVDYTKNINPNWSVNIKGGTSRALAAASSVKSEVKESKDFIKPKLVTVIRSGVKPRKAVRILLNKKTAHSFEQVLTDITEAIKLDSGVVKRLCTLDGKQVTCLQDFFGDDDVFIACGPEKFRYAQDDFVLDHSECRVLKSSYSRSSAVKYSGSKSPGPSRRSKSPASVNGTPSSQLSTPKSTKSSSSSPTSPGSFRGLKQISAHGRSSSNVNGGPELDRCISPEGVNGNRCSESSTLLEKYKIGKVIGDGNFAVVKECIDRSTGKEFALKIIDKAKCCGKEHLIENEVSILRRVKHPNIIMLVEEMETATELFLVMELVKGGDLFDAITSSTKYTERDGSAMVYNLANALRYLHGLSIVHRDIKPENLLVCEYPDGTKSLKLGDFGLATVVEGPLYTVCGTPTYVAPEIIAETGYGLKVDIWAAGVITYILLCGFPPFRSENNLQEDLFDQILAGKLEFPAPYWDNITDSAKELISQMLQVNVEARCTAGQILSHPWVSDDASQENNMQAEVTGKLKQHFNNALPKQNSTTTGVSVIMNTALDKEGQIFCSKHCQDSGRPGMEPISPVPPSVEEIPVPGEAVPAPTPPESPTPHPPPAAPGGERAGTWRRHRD

[25] = molecular target: T17, CSNK2A1 (Homo sapiens, UniProt P68400); assay: as above; type: binding; conditions: read-out: % control
T17 construct: purchased DiscoveRx/Eurofin

[26] = molecular target: T18, EGFR (Homo sapiens, UniProt P00533); assay: as above; type: binding; conditions: read-out: % control
T18 construct: purchased DiscoveRx/Eurofin

[27] = molecular target: CDKs; assay: Kinome profiling of NGN-006; type: binding; conditions: kinases that HSB-13 inhibits
[28] = molecular target: T19, CSNK2A2 (Homo sapiens, UniProt P19784); assay: KINOMEscan kinome profiling (DiscoveRx/Eurofin platform); type: binding; conditions: read-out: % control
T19 construct: purchased DiscoveRx/Eurofin

[29] = molecular target: T20, CSNK1A1 (Homo sapiens, UniProt P48729); assay: as above; type: binding; conditions: read-out: % control
T20 construct: purchased DiscoveRx/Eurofin
T20 sequence (P48729 whole entry): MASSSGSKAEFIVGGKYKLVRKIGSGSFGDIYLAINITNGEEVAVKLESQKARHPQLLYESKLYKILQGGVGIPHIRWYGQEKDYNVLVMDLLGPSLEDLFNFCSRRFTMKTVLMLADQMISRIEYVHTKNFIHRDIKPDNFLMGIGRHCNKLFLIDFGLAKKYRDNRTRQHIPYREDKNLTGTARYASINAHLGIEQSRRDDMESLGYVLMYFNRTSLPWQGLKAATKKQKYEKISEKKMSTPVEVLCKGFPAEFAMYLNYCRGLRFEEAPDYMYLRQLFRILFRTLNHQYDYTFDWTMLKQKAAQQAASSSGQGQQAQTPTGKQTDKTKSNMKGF

[30] = molecular target: T21, DAPK3 (Homo sapiens, UniProt O43293); assay: as above; type: binding; conditions: read-out: % control
T21 construct: purchased DiscoveRx/Eurofin
T21 sequence (O43293 whole entry): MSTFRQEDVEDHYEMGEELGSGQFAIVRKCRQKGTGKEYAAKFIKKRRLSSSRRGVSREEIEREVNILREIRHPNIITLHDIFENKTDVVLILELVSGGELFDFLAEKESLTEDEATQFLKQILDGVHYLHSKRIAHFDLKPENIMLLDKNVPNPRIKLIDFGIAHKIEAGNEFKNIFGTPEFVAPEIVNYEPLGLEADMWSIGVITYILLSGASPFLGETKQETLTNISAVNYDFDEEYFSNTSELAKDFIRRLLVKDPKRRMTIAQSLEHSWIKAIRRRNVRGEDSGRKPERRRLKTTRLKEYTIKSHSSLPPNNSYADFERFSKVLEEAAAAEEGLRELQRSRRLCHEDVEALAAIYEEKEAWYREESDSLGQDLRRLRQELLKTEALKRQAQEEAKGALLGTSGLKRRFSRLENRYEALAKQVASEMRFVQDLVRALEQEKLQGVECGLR

[31] = molecular target: T22, DAPK2 (Homo sapiens, UniProt Q9UIK4); assay: as above; type: binding; conditions: read-out: % control
T22 construct: purchased DiscoveRx/Eurofin

[32] = molecular target: T23, DYRK1B (Homo sapiens, UniProt Q9Y463); assay: as above; type: binding; conditions: read-out: % control
T23 construct: purchased DiscoveRx/Eurofin

[33] = molecular target: T24, CIT (Homo sapiens, UniProt O14578); assay: as above; type: binding; conditions: read-out: % control
T24 construct: purchased DiscoveRx/Eurofin

[34] = molecular target: T25, DDR1 (Homo sapiens, UniProt Q08345); assay: as above; type: binding; conditions: read-out: % control
T25 construct: purchased DiscoveRx/Eurofin

[35] = molecular target: T26, CSNK1A1L (Homo sapiens, UniProt Q8N752); assay: as above; type: binding; conditions: read-out: % control
T26 construct: purchased DiscoveRx/Eurofin

[36] = molecular target: T27, DLK (MAP3K12) (Homo sapiens, UniProt Q12852); assay: as above; type: binding; conditions: KINOMEscan DLK (Entrez MAP3K12), read-out: % control
T27 construct: purchased DiscoveRx/Eurofin
T27 sequence (Q12852 whole entry): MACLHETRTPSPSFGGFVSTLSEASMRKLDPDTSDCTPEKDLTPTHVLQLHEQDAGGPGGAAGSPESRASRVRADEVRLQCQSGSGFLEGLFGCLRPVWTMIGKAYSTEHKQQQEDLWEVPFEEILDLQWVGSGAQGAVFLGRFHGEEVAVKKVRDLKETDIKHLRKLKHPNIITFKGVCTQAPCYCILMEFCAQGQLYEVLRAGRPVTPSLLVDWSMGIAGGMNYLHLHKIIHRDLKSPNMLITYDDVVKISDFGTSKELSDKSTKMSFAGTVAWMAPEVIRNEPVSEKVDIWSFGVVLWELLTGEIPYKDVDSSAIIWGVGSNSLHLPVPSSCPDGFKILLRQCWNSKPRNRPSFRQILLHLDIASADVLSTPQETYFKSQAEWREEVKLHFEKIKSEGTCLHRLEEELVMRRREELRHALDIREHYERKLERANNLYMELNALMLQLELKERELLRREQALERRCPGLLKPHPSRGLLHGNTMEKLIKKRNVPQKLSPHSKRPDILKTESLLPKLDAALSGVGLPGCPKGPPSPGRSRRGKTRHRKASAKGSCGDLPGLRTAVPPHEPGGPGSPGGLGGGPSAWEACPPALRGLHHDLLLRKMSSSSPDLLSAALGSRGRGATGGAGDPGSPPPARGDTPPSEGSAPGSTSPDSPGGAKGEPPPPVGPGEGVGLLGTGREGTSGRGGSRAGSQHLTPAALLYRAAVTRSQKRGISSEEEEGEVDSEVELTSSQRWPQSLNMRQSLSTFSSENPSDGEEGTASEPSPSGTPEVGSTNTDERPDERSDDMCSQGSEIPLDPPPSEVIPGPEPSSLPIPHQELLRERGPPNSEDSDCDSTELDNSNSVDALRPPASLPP

[37] = molecular target: T28, EGFR(L747-E749del, A750P) (Homo sapiens, UniProt P00533, A750P/DEL747-749); assay: as above; type: binding; conditions: read-out: % control
T28 construct: purchased DiscoveRx/Eurofin

[38] = molecular target: T29, CSF1R (Homo sapiens, UniProt P07333); assay: as above; type: binding; conditions: read-out: % control
T29 construct: purchased DiscoveRx/Eurofin

[39] = molecular target: T30, CSNK1D (Homo sapiens, UniProt P48730); assay: as above; type: binding; conditions: read-out: % control
T30 construct: purchased DiscoveRx/Eurofin

[40] = molecular target: T31, DRAK2 (STK17B) (Homo sapiens, UniProt O94768); assay: as above; type: binding
T31 construct: purchased DiscoveRx/Eurofin
T31 sequence (O94768 whole entry): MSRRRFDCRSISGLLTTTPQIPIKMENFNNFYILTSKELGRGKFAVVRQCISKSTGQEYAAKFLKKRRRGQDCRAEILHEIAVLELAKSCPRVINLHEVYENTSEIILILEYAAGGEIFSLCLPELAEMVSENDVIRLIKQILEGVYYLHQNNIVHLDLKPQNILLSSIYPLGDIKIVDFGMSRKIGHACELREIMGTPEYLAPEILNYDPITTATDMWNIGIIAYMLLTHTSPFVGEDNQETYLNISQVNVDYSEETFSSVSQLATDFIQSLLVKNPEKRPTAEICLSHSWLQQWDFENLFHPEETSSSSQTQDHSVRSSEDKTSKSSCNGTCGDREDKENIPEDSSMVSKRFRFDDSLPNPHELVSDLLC

[41] = molecular target: T32, DDR2 (Homo sapiens, UniProt Q16832); assay: as above; type: binding; conditions: read-out: % control
T32 construct: purchased DiscoveRx/Eurofin

[42] = molecular target: T33, CSNK1G2 (Homo sapiens, UniProt P78368); assay: as above; type: binding; conditions: read-out: % control
T33 construct: purchased DiscoveRx/Eurofin

[43] = molecular target: T34, CLK1 (Homo sapiens, UniProt P49759); assay: as above; type: binding; conditions: read-out: % control
T34 construct: purchased DiscoveRx/Eurofin

[44] = molecular target: T1, GSK3β; assay: Kinome profiling of NGN-006; type: binding; conditions: kinase that HSB-13 inhibits
[45] = molecular target: p38 MAPK; assay: Kinome profiling of NGN-006; type: binding; conditions: kinase that HSB-13 inhibits
[46] = molecular target: T35, DMPK (Homo sapiens, UniProt Q09013); assay: KINOMEscan kinome profiling (DiscoveRx/Eurofin platform); type: binding; conditions: read-out: % control
T35 construct: purchased DiscoveRx/Eurofin

[47] = molecular target: other members of the DAPK family; assay: Kinome profiling of NGN-006; type: binding
[48] = molecular target: T36, CSNK1G3 (Homo sapiens, UniProt Q9Y6M4); assay: KINOMEscan kinome profiling (DiscoveRx/Eurofin platform); type: binding; conditions: read-out: % control
T36 construct: purchased DiscoveRx/Eurofin

[49] = tested on: 451 kinases; assay: Kinome profiling, count of kinases inhibited in the whole panel; type: binding; conditions: substantially defined as over 36% inhibition at 1 uM
[50] = molecular target: T37, CTK (MATK) (Homo sapiens, UniProt P42679); assay: KINOMEscan kinome profiling (DiscoveRx/Eurofin platform); type: binding; conditions: KINOMEscan CTK (Entrez MATK), read-out: % control
T37 construct: purchased DiscoveRx/Eurofin

[51] = molecular target: T38, EGFR(E746-A750del) (Homo sapiens, UniProt P00533, DEL746-750); assay: as above; type: binding; conditions: read-out: % control
T38 construct: purchased DiscoveRx/Eurofin

[52] = molecular target: T39, EGFR(G719C) (Homo sapiens, UniProt P00533, G719C); assay: as above; type: binding; conditions: read-out: % control
T39 construct: purchased DiscoveRx/Eurofin

[53] = molecular target: T40, CSNK1G1 (Homo sapiens, UniProt Q9HCP0); assay: as above; type: binding; conditions: read-out: % control
T40 construct: purchased DiscoveRx/Eurofin

[54] = tested on: cortical neurons; assay: Neuroprotection in cortical neurons treated with homocysteic acid (HCA); type: cell-based; conditions: cortical neurons treated with HCA (oxidative stress); 5 uM and 25 uM for 18 h; single experiment in duplicate
Experimental: as §1, §2

[55] = molecular target: T41, DCAMKL3 (DCLK3) (Homo sapiens, UniProt Q9C098); assay: KINOMEscan kinome profiling (DiscoveRx/Eurofin platform); type: binding; conditions: KINOMEscan DCAMKL3 (Entrez DCLK3), read-out: % control
T41 construct: purchased DiscoveRx/Eurofin

Nc1ccc2c(c1)NC(=O)/C(=C/c1cc(Br)c(O)c(Br)c1)O2 [HSB-13]
kinase inhibition (in words) [1]: most inhibited
kinases inhibited out of a panel of 20 kinases [2]: 3
kinase inhibition (in words) [3]: most inhibited
kinase inhibition (in words) [4]: most inhibited
behavioral performance [5]: improved behavioral performance
neurodegeneration [5]: prevented neurodegeneration
protection [6]: protective
protection against neuronal loss [7]: protective

Nc1ccc2c(c1)NC(=O)/C(=C/c1ccc(Cl)cc1)O2 [NGN-006, (2Z)-6-amino-2-[(4-chlorophenyl)methylidene]-3,4-dihydro-2H-1,4-benzoxazin-3-one]
remaining binding at 1 µM [8]: 100%
remaining binding at 1 µM [9]: 100%
remaining binding at 1 µM [10]: 92%
remaining binding at 1 µM [11]: 96%
remaining binding at 1 µM [12]: 100%
remaining binding at 1 µM [13]: 89%
remaining binding at 1 µM [14]: 98%
% control [15]: 100%
remaining binding at 1 µM [16]: 100%
remaining binding at 1 µM [17]: 26%
neuroprotection (viability) [18]: protective
remaining binding at 1 µM [19]: 100%
remaining binding at 1 µM [20]: 100%
remaining binding at 1 µM [21]: 100%
remaining binding at 1 µM [22]: 97%
remaining binding at 1 µM [23]: 100%
remaining binding at 1 µM [24]: 98%
remaining binding at 1 µM [25]: 100%
remaining binding at 1 µM [26]: 87%
kinase inhibition (in words) [27]: does not inhibit
remaining binding at 1 µM [28]: 100%
remaining binding at 1 µM [29]: 100%
remaining binding at 1 µM [30]: 88%
remaining binding at 1 µM [31]: 86%
remaining binding at 1 µM [32]: 100%
remaining binding at 1 µM [33]: 100%
remaining binding at 1 µM [34]: 100%
remaining binding at 1 µM [35]: 100%
remaining binding at 1 µM [36]: 100%
remaining binding at 1 µM [37]: 92%
remaining binding at 1 µM [38]: 100%
remaining binding at 1 µM [39]: 100%
remaining binding at 1 µM ([40]; KINOMEscan DRAK2 (Entrez STK17B), 1 uM, read-out: % control): 83%
kinase inhibition (in words) ([40]; closely-related DRAK2 protein): not inhibited
remaining binding at 1 µM [41]: 100%
remaining binding at 1 µM [42]: 100%
remaining binding at 1 µM [43]: 79%
kinase inhibition (in words) [44]: does not inhibit
kinase inhibition (in words) [45]: does not inhibit
remaining binding at 1 µM [46]: 100%
kinase inhibition (in words) [47]: not inhibited
remaining binding at 1 µM [48]: 84%
kinases inhibited substantially of the 451 kinases tested [49]: only DRAK1/STK17a
remaining binding at 1 µM [50]: 100%
remaining binding at 1 µM [51]: 100%
remaining binding at 1 µM [52]: 100%
remaining binding at 1 µM [53]: 100%
neuroprotection (viability) [54]: protective
remaining binding at 1 µM [55]: 100%
